Measurements reported in US20190330224A1, “ACC INHIBITORS AND USES THEREOF” (Gilead Apollo, LLC, priority 2015, published 2019).
In brackets after ≈: the same amount, converted by molar mass.

How the values were obtained:
Human ACC2 = Human ACC2 (Homo sapiens, UniProt O00763); test: In vitro ACC2 inhibition assay (ADP-Glo), human ACC2; type: biochemical; settings: 5 nM ACC2, 20 μM ATP, 20 μM acetyl-CoA
C. albicans ATCC 90028 = test: Anti-Fungal Activity Assay (broth microtiter MIC), C. albicans; type: cell-based, Candida albicans; settings: Candida albicans, ATCC90028, 48 h, 3 replicates; MIC recorded at 48 h; read-out: MIC C. albicans ATCC 90028
Method in brief: (§1)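 Broth microdilution per CLSI M27-A3 in RPMI 1640+MOPS, inoculum from overnight Sabouraud dextrose agar colonies at 35° C; compounds from 1 mg/mL DMSO stocks. MIC read visually against growth control at 48 h, with an added 24 h reading for soraphen.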

C. krusei ATCC 6258 = test: Anti-Fungal Activity Assay (broth microtiter MIC), C. krusei; type: cell-based, Candida krusei; settings: Pichia kudriavzevii, ATCC6258, 48 h, 3 replicates; MIC recorded at 48 h; read-out: MIC C. krusei ATCC 6258
Method in brief: as §1

[1] = test system: C. parapsilosis ATCC 22019; test: Anti-Fungal Activity Assay (broth microtiter MIC), C. parapsilosis; type: cell-based, Candida parapsilosis; settings: Lodderomyces parapsilosis, ATCC22019, 48 h, 3 replicates; MIC recorded at 48 h; read-out: MIC C. parapsilosis ATCC 22019
Method in brief: as §1

Fungal ACC2 = Fungal ACC2 (UniProt Q00955); settings: read-out: Fungal ACC2 (IC50, in vitro ACC2 inhibition)
Chain of Fungal ACC2 (Q00955 whole entry): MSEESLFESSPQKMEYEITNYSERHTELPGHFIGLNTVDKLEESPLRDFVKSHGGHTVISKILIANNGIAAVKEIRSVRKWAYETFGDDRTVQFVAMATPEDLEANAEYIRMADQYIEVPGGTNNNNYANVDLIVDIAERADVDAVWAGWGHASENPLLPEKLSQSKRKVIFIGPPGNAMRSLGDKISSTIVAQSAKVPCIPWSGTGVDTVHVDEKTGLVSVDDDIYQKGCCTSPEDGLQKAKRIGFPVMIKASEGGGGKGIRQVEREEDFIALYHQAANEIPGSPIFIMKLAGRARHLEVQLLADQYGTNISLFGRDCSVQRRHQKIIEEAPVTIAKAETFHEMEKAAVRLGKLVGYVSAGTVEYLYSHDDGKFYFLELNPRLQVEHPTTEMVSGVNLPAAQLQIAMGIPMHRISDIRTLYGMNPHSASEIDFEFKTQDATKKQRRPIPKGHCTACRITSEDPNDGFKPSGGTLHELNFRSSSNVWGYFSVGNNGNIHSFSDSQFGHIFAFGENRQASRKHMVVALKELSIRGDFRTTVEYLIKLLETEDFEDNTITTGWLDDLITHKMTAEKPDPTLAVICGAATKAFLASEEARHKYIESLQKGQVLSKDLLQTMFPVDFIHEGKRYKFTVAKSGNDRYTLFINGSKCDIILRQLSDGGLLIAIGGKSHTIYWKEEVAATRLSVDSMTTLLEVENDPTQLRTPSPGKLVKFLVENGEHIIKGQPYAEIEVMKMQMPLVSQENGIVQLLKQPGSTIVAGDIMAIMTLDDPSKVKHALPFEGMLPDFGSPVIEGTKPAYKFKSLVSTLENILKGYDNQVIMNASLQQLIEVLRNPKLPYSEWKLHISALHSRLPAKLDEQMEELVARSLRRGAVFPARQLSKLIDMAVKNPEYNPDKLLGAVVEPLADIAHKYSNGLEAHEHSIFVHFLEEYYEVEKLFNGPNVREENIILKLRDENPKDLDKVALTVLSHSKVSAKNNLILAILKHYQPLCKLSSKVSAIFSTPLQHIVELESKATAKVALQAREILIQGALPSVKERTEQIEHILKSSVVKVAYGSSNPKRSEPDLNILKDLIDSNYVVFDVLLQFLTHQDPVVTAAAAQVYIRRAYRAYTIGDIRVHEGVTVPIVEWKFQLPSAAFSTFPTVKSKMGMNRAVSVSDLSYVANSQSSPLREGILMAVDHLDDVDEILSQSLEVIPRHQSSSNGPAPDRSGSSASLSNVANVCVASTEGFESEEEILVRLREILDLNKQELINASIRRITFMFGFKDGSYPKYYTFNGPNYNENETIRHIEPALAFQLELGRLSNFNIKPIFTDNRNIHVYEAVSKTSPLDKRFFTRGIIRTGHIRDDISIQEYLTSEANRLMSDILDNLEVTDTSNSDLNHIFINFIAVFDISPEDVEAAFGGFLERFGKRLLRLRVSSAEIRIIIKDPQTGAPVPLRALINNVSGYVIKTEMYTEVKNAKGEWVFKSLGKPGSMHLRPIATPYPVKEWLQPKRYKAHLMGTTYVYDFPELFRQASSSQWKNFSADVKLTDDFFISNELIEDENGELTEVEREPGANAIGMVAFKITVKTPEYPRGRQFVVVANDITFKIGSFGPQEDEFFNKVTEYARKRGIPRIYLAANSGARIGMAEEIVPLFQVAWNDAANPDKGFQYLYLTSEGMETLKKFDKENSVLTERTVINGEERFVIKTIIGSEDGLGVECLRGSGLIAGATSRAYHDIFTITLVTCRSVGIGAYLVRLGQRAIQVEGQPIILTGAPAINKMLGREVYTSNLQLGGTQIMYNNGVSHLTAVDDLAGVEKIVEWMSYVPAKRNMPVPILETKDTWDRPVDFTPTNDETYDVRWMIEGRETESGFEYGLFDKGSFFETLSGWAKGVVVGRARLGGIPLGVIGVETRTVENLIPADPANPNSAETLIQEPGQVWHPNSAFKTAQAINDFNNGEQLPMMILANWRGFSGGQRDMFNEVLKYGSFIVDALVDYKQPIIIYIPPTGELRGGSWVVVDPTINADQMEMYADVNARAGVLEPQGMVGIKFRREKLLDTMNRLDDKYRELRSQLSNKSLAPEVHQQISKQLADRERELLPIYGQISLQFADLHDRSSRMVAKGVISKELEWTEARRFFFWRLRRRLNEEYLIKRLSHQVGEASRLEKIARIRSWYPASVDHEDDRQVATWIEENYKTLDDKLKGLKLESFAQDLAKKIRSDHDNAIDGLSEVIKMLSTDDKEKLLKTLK

Chain of Human ACC2 (O00763 whole entry): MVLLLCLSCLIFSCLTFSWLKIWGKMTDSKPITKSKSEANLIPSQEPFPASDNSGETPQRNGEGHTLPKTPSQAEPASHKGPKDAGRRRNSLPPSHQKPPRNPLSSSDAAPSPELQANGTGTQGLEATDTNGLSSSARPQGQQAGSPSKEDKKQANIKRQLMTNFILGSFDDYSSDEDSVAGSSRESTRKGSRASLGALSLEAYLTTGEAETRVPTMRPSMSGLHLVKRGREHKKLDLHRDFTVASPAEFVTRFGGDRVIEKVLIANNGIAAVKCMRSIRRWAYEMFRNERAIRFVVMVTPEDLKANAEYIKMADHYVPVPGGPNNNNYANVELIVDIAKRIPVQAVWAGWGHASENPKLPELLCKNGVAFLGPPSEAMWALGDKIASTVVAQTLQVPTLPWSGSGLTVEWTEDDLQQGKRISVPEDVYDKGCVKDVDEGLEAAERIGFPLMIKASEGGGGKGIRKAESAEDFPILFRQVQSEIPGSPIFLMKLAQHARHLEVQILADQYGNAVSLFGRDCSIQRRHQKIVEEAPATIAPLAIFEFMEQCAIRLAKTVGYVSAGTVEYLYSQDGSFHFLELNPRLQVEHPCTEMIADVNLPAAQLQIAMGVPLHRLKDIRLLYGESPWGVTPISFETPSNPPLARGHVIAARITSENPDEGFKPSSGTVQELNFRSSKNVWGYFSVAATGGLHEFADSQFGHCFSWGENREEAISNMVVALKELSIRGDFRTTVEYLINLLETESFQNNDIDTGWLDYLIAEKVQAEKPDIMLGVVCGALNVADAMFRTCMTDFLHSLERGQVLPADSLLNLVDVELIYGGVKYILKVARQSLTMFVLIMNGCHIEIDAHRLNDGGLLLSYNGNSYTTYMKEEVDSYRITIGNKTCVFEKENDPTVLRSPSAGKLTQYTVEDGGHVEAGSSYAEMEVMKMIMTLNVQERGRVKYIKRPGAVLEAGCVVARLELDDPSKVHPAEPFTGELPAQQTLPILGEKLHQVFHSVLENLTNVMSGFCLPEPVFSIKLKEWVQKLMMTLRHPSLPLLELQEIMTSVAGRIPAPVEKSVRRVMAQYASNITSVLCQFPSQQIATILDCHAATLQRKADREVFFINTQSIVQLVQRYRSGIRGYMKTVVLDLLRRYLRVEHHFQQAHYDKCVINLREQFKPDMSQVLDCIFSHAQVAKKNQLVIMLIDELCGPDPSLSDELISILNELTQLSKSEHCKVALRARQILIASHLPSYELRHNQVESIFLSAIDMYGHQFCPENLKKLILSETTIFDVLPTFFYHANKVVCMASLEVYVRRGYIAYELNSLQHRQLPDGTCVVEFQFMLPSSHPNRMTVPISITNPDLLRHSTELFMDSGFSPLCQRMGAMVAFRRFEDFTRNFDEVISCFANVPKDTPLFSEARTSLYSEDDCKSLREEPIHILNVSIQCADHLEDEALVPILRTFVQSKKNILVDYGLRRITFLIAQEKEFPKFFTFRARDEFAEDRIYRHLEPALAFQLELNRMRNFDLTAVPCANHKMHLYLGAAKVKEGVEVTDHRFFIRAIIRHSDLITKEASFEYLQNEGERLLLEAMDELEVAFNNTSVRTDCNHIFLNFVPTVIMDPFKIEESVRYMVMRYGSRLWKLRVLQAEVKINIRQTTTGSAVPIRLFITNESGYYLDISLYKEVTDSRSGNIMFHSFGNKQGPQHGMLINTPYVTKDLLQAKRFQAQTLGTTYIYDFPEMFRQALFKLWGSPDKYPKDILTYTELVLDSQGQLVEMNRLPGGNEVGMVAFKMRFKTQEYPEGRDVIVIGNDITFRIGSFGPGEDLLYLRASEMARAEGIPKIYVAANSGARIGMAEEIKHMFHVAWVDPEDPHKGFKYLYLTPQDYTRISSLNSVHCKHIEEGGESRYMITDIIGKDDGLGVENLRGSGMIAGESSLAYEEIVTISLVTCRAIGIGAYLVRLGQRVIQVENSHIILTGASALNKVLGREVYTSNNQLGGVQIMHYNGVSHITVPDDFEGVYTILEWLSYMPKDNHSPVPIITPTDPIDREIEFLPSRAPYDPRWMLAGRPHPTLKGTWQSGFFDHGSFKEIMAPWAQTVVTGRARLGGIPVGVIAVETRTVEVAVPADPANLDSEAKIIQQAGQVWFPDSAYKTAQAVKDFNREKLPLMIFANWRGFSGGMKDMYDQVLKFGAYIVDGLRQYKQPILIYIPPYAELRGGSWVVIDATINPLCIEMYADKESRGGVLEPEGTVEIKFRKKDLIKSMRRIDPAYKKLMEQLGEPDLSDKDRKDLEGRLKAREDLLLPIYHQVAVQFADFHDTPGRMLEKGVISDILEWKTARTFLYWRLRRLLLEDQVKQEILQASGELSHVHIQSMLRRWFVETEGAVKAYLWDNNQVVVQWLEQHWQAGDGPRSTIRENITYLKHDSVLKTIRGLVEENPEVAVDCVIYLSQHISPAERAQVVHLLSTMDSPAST

| SMILES | IC50 (Human ACC2) [µM] | MIC (C. albicans ATCC 90028) [mg/L] | MIC (C. krusei ATCC 6258) [mg/L] | MIC [1] [mg/L] | IC50 (Fungal ACC2) [µM] |
| --- | --- | --- | --- | --- | --- |
| COc1ccc(F)cc1[C@H](Cn1c(=O)n([C@@H]2CCCNC2=O)c(=O)c2c(C)c(-n3nccn3)sc21)O[C@H]1CC[C@@H](O)CC1 [Compound I-174, 1-((R)-2-(5-fluoro-2-methoxyphenyl)-2-(((1 s, 4S)-4-hydroxycyclohexyl)oxy)ethyl)-5-methyl-3-((R)-2-oxopiperidin-3-yl)-6-(2H-1,2,3-triazol-2-yl)thieno[2,3-d]pyrimidine-2,4(1H,3H)-dione] | 0.002 to 0.01 | 0.25 to 1 (≈ 0.408 to 1.63 µM) | 0.25 to 1 (≈ 0.408 to 1.63 µM) | 1.1 to 2 (≈ 1.8 to 3.26 µM) | 0.0007 to 0.002 |
| COc1ccc(F)cc1[C@H](Cn1c(=O)n([C@@H]2CCN(C)C2=O)c(=O)c2c(C)c(-n3nccn3)sc21)OCCC(=O)O [Compound I-175, 3-((R)-1-(5-fluoro-2-methoxyphenyl)-2-(5-methyl-3-((R)-1-methyl-2-oxopyrrolidin-3-yl)-2,4-dioxo-6-(2H-1,2,3-triazol-2-yl)-3,4-dihydro-thieno[2,3-d]pyrimidin-1(2H)-yl)ethoxy)propanoic acid] | 0.01 to 0.1 | 2.1 to 4 (≈ 3.58 to 6.82 µM) | 2.1 to 4 (≈ 3.58 to 6.82 µM) | 2.1 to 4 (≈ 3.58 to 6.82 µM) | 0.0007 to 0.002 |
| COc1ccc(F)cc1[C@H](Cn1c(=O)n([C@H]2CCN(C)C2=O)c(=O)c2c(C)c(-n3nccn3)sc21)OCCC(=O)O [Compound I-176, 3-((R)-1-(5-fluoro-2-methoxyphenyl)-2-(5-methyl-3-((S)-1-methyl-2-oxopyrrolidin-3-yl)-2,4-dioxo-6-(2H-1,2,3-triazol-2-yl)-3,4-dihydrothieno[2,3-d]pyrimidin-1 (2H)-yl)ethoxy)propanoic acid] | 0.01 to 0.1 | 2.1 to 4 (≈ 3.58 to 6.82 µM) | 2.1 to 4 (≈ 3.58 to 6.82 µM) | 2.1 to 4 (≈ 3.58 to 6.82 µM) | 0.002 to 0.01 |
| COc1ccc(F)cc1[C@H](Cn1c(=O)n([C@H]2CCCNC2=O)c(=O)c2c(C)c(-n3nccn3)sc21)OCCC(=O)O [Compound I-177, 3-((R)-1-(5-fluoro-2-methoxyphenyl)-2-(5-methyl-2,4-dioxo-3-((S)-2-oxopiperidin-3-yl)-6-(2H-1,2,3-triazol-2-yl)-3,4-dihydrothieno[2,3-d]pyrimidin-1 (2H)-yl)ethoxy)propanoic acid] | 0.01 to 0.1 | 2.1 to 4 (≈ 3.58 to 6.82 µM) | 2.1 to 4 (≈ 3.58 to 6.82 µM) | 2.1 to 4 (≈ 3.58 to 6.82 µM) | 0.002 to 0.01 |
| COc1ccc(F)cc1[C@H](Cn1c(=O)n([C@@H]2CCN(C)C2=O)c(=O)c2c(C)c(-n3cccn3)sc21)OCCC(=O)O [Compound I-179, 3-((R)-1-(5-fluoro-2-methoxyphenyl)-2-(5-methyl-3-((R)-1-methyl-2-oxopyrrolidin-3-yl)-2,4-dioxo-6-(H-pyrazol-1-yl)-3,4-dihydrothieno[2,3-d]pyrimidin-1 (2H)-yl)ethoxy)propanoic acid] | 0.01 to 0.1 | 2.1 to 4 (≈ 3.59 to 6.83 µM) | 2.1 to 4 (≈ 3.59 to 6.83 µM) | 2.1 to 4 (≈ 3.59 to 6.83 µM) | 0.002 to 0.01 |
| COc1ccc(F)cc1[C@H](Cn1c(=O)n([C@H]2CCN(C)C2=O)c(=O)c2c(C)c(-n3cccn3)sc21)OCCC(=O)O [Compound I-180, 3-((R)-1-(5-fluoro-2-methoxyphenyl)-2-(5-methyl-3-((S)-1-methyl-2-oxopyrrolidin-3-yl)-2,4-dioxo-6-(1H-pyrazol-1-yl)-3,4-dihydrothieno[2,3-d]pyrimidin-1(2H)-yl)ethoxy)propanoic acid] | 0.1 to 1 | 2.1 to 4 (≈ 3.59 to 6.83 µM) | 2.1 to 4 (≈ 3.59 to 6.83 µM) | 2.1 to 4 (≈ 3.59 to 6.83 µM) | 0.01 to 0.1 |
| COc1ccc(F)cc1[C@H](Cn1c(=O)n([C@@H]2CCN(C)C2=O)c(=O)c2c(C)c(-n3cccn3)sc21)O[C@H]1CC[C@@H](O)CC1 [Compound I-181, 1-((R)-2-(5-fluoro-2-methoxyphenyl)-2-(((I s, 4S)-4-hydroxycyclohexyl)oxy)ethyl)-5-methyl-3-((R)-1-methyl-2-oxopyrrolidin-3-yl)-6-(1H-pyrazol-1-yl)thieno[2,3-d]pyrimidine-2,4(1H,3H)-dione] | 0.002 to 0.01 | 0.25 to 1 (≈ 0.409 to 1.63 µM) | 1.1 to 2 (≈ 1.8 to 3.27 µM) | 1.1 to 2 (≈ 1.8 to 3.27 µM) | 0.0007 to 0.002 |
